# Assay results published in the OligoGym collection.
# HELM strings list units from the 5' end as sugar, base in round brackets, then linkage (d deoxyribose, r ribose, m 2'-O-methyl, p phosphodiester). Strings are as the collection lists them; they lack the last nucleoside at the 3' end of the tested compound. [moe] = 2'-O-(2-methoxyethyl) (MOE); [sp] = phosphorothioate linkage; [m5C] = 5-methylcytosine
# Molecular target: GFAP
# Assay: mouse, dose not given
# Settings: ASO
row,Substance,3 h FOB score
1,RNA1{[moe](G)[sp].[moe](T)p.[moe]([m5C])p.[moe](A)p.[moe](G)p.d([m5C])[sp].d([m5C])[sp].d(T)[sp].d(G)[sp].d(G)[sp].d(T)[sp].d(T)[sp].d(A)[sp].d(G)[sp].d([m5C])[sp].[moe]([m5C])p.[moe](T)p.[moe](T)[sp].[moe](T)}$$$$ (last 3' nucleoside missing),5 score 0-7
2,RNA1{[moe](G)[sp].[moe](T)p.[moe]([m5C])p.[moe](A)p.[moe]([m5C])[sp].d(A)[sp].d(T)[sp].d(T)[sp].d([m5C])[sp].d(A)[sp].d([m5C])[sp].d(T)[sp].d(A)[sp].[moe](A)p.[moe](T)p.[moe](A)[sp].[moe](T)}$$$$ (last 3' nucleoside missing),0 score 0-7
3,RNA1{[moe](G)[sp].[moe](T)p.[moe]([m5C])p.[moe](A)p.[moe]([m5C])[sp].d(A)[sp].d(T)[sp].d(T)[sp].d([m5C])[sp].d(A)[sp].d([m5C])[sp].d(T)[sp].d(A)[sp].d(A)[sp].d(T)[sp].[moe](A)p.[moe](T)p.[moe](T)[sp].[moe](T)}$$$$ (last 3' nucleoside missing),0 score 0-7
4,RNA1{[moe](G)[sp].[moe](T)p.[moe]([m5C])p.[moe](A)p.[moe]([m5C])p.[moe](A)p.d(T)[sp].d(T)[sp].d([m5C])[sp].d(A)[sp].d([m5C])[sp].d(T)[sp].d(A)[sp].d(A)[sp].d(T)[sp].d(A)[sp].[moe](T)p.[moe](T)[sp].[moe](T)}$$$$ (last 3' nucleoside missing),0 score 0-7
5,RNA1{[moe](G)[sp].[moe](T)p.[moe]([m5C])p.[moe](A)p.[moe]([m5C])p.d(A)[sp].d(T)[sp].d(T)[sp].d([m5C])[sp].d(A)[sp].d([m5C])[sp].d(T)[sp].d(A)[sp].d(A)[sp].d(T)[sp].[moe](A)p.[moe](T)p.[moe](T)[sp].[moe](T)}$$$$ (last 3' nucleoside missing),0 score 0-7
6,RNA1{[moe](G)[sp].[moe](T)p.[moe]([m5C])p.[moe](A)p.d([m5C])[sp].d(A)[sp].d(T)[sp].d(T)[sp].d([m5C])[sp].d(A)[sp].d([m5C])[sp].d(T)[sp].d(A)[sp].d(A)[sp].[moe](T)p.[moe](A)p.[moe](T)p.[moe](T)[sp].[moe](T)}$$$$ (last 3' nucleoside missing),0 score 0-7
7,RNA1{[moe](G)[sp].[moe](T)p.[moe]([m5C])p.[moe](T)p.[moe](G)[sp].d(A)[sp].d(G)[sp].d(T)[sp].d([m5C])[sp].d(T)[sp].d([m5C])[sp].d(A)[sp].d(G)[sp].d(T)[sp].d(T)[sp].[moe](T)p.[moe](T)p.[moe]([m5C])[sp].[moe]([m5C])}$$$$ (last 3' nucleoside missing),7 score 0-7
8,RNA1{[moe](G)[sp].[moe](T)p.[moe]([m5C])p.[moe](T)p.[moe](T)[sp].d(T)[sp].d(A)[sp].d(T)[sp].d(T)[sp].d(T)[sp].d(T)[sp].d(T)[sp].d([m5C])[sp].[moe]([m5C])p.[moe](T)p.[moe]([m5C])[sp].[moe](A)}$$$$ (last 3' nucleoside missing),4 score 0-7
9,RNA1{[moe](G)[sp].[moe](T)p.[moe]([m5C])p.[moe](T)p.[moe](T)[sp].d(T)[sp].d(A)[sp].d(T)[sp].d(T)[sp].d(T)[sp].d(T)[sp].d(T)[sp].d([m5C])[sp].d([m5C])[sp].d(T)[sp].[moe]([m5C])p.[moe](A)p.[moe](G)[sp].[moe]([m5C])}$$$$ (last 3' nucleoside missing),5 score 0-7
10,RNA1{[moe](G)[sp].[moe](T)p.[moe]([m5C])p.[moe](T)p.[moe]([m5C])[sp].d(A)[sp].d(G)[sp].d(T)[sp].d(T)[sp].d(T)[sp].d(T)[sp].d([m5C])[sp].d([m5C])[sp].d(T)[sp].d([m5C])[sp].[moe]([m5C])p.[moe](A)p.[moe](G)[sp].[moe]([m5C])}$$$$ (last 3' nucleoside missing),0 score 0-7
11,RNA1{[moe](G)[sp].[moe](T)p.[moe]([m5C])p.[moe](T)p.d(T)[sp].d(T)[sp].d(A)[sp].d(T)[sp].d(T)[sp].d(T)[sp].d(T)[sp].d(T)[sp].d([m5C])[sp].d([m5C])[sp].[moe](T)p.[moe]([m5C])p.[moe](A)p.[moe](G)[sp].[moe]([m5C])}$$$$ (last 3' nucleoside missing),3 score 0-7
12,RNA1{[moe](G)[sp].[moe]([m5C])p.[moe](A)p.[moe](A)p.[moe]([m5C])[sp].d(A)[sp].d(G)[sp].d(T)[sp].d(T)[sp].d(T)[sp].d([m5C])[sp].d([m5C])[sp].d(A)[sp].d(T)[sp].d(A)[sp].[moe](A)p.[moe]([m5C])p.[moe](A)[sp].[moe](A)}$$$$ (last 3' nucleoside missing),0 score 0-7
13,RNA1{[moe](G)[sp].[moe]([m5C])p.[moe](A)p.[moe](G)p.[moe](T)[sp].d(A)[sp].d(T)[sp].d(T)[sp].d(A)[sp].d([m5C])[sp].d([m5C])[sp].d(T)[sp].d([m5C])[sp].[moe](T)p.[moe](A)p.[moe]([m5C])[sp].[moe](T)}$$$$ (last 3' nucleoside missing),1 score 0-7
14,RNA1{[moe](G)[sp].[moe]([m5C])p.[moe](A)p.[moe](G)p.[moe](T)p.[moe](A)p.d(T)[sp].d(T)[sp].d(A)[sp].d([m5C])[sp].d([m5C])[sp].d(T)[sp].d([m5C])[sp].d(T)[sp].d(A)[sp].d([m5C])[sp].[moe](T)p.[moe](A)[sp].[moe](G)}$$$$ (last 3' nucleoside missing),0 score 0-7
15,RNA1{[moe](G)[sp].[moe]([m5C])p.[moe](A)p.[moe](G)p.[moe]([m5C])[sp].d(A)[sp].d(T)[sp].d(T)[sp].d(T)[sp].d(G)[sp].d(T)[sp].d([m5C])[sp].d(T)[sp].d(T)[sp].d(T)[sp].[moe](A)p.[moe](T)p.[moe](T)[sp].[moe](T)}$$$$ (last 3' nucleoside missing),4 score 0-7
16,RNA1{[moe](G)[sp].[moe]([m5C])p.[moe](A)p.[moe](G)p.d(T)[sp].d(A)[sp].d(T)[sp].d(T)[sp].d(A)[sp].d([m5C])[sp].d([m5C])[sp].d(T)[sp].d([m5C])[sp].d(T)[sp].[moe](A)p.[moe]([m5C])p.[moe](T)p.[moe](A)[sp].[moe](G)}$$$$ (last 3' nucleoside missing),1 score 0-7
17,RNA1{[moe](G)[sp].[moe]([m5C])p.[moe](A)p.[moe](T)p.[moe](T)[sp].d(T)[sp].d(G)[sp].d(T)[sp].d([m5C])[sp].d(T)[sp].d(T)[sp].d(T)[sp].d(A)[sp].[moe](T)p.[moe](T)p.[moe](T)[sp].[moe](T)}$$$$ (last 3' nucleoside missing),1 score 0-7
18,RNA1{[moe](G)[sp].[moe]([m5C])p.[moe](A)p.[moe](T)p.[moe](T)[sp].d(T)[sp].d(G)[sp].d(T)[sp].d([m5C])[sp].d(T)[sp].d(T)[sp].d(T)[sp].d(A)[sp].d(T)[sp].d(T)[sp].[moe](T)p.[moe](T)p.[moe](T)[sp].[moe]([m5C])}$$$$ (last 3' nucleoside missing),0 score 0-7
19,RNA1{[moe](G)[sp].[moe]([m5C])p.[moe](A)p.[moe](T)p.[moe](T)p.[moe](T)p.d(G)[sp].d(T)[sp].d([m5C])[sp].d(T)[sp].d(T)[sp].d(T)[sp].d(A)[sp].d(T)[sp].d(T)[sp].d(T)[sp].[moe](T)p.[moe](T)[sp].[moe]([m5C])}$$$$ (last 3' nucleoside missing),1 score 0-7
